The target in one assay is T1, P2X2 A304W (Homo sapiens, UniProt Q9UBL9, A304W).
T1 construct: expressed in transfected cells; host or cells: S. cerevisiae BY4741 background
T1 sequence (Q9UBL9 1-471 A304W): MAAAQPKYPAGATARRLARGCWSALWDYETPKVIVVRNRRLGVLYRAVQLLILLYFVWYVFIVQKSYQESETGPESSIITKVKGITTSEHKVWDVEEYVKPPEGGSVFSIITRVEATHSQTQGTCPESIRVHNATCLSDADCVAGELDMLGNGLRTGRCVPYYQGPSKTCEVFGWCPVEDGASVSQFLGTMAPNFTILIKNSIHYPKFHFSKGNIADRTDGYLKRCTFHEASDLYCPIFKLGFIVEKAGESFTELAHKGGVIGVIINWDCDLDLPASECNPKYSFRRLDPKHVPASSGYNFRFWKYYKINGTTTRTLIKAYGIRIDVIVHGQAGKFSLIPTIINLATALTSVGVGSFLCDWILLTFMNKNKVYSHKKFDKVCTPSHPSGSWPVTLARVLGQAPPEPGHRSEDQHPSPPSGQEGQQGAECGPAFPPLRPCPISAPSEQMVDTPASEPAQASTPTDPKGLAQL
Nature of the assay: Fast GCaMP-mScarletI assay in yeast, P2X2 A304W. To be noted: site-saturation screen, 500 μM ATP, ± sd. The class given is cell-based.

The test system of assay [1] is Crz1p nuclear localization (calcineurin pathway) in WT-P2X2 strain. As to the kind of experiment: GFP-Crz1p nuclear localization in P2X2 yeast after ATP injection. In kind it is cell-based, S. cerevisiae. To be noted: five minutes after ATP injection, 200 μM ATP (f.c.). An excerpt:
As further validation of P2X2 function in yeast, we sought to investigate whether P2X2 could trigger the calcineurin pathway, which is a native pathway controlled by calcium. After intracellular calcium levels rise, calcineurin regulates the nuclear localization of transcription factor Crz1p ([27]). To test if unnatural ion channels could activate this pathway, a GFP-tagged Crz1p was co-expressed with P2X2 in yeast. […] The degree of nuclear localization was double that of a negative control mutant P2X receptor.
Yeast strains EG.y156 WT-P2X2 or EG.y66 broken-P2X2 were transformed with EG.B723 GFP-tagged Crz1p. Yeast were cultured and induced as previously described. Cells were loaded onto a cell imaging microplate (Eppendorf, cat. no. 0030741030) that was pre-treated with Poly-D-lysine (50 μg/ml). Cells (50 μl) were attached to the plate for 30 min at room temperature, and wells were then gently washed three times with media to remove non-adherent cells. Cells were resuspended in 100 μl and imaged on a Cytation 5 Cell Imaging Multi-Mode reader. Cells were imaged before injection with the appropriate substrate, immediately after injection, and 5 or 10 min after injection. […] Nuclear localization events were automatically counted in Ilastik (https://www.ilastik.org/). Percent nuclear localization was counted as nuclear localization events divided by total cells.

The target in assay [2] is T2, P2X2 G353 threonine substitution (G353T) (Homo sapiens, UniProt Q9UBL9, G353T).
T2 construct: expressed in transfected cells; host or cells: S. cerevisiae BY4741 background
T2 sequence (Q9UBL9 whole entry G353T): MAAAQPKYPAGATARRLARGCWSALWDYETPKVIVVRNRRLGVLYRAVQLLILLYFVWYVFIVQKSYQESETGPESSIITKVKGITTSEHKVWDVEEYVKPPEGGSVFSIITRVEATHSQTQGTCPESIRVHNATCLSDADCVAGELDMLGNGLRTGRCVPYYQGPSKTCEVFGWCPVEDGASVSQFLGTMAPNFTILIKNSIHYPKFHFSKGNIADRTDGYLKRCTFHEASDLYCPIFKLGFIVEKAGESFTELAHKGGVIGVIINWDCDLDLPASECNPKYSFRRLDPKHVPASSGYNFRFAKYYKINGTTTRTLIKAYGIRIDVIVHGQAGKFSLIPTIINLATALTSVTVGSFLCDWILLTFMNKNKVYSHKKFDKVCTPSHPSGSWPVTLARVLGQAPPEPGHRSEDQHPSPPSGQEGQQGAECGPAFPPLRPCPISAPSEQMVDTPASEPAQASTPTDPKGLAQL
As to the kind of experiment: Site-saturation screen, fast kinetic assay in yeast, G353 threonine. In kind it is cell-based. To be noted: 500 μM ATP, ΔF/ΔT normalized to WT. The procedure: Figure 2 P2X2 SNP testing.A, homology model of P2X2 with the clinically implicated SNPs highlighted. V60 is highlighted in magenta and G353 is highlighted in dark blue. Lines indicate the positions of the mutations on each of the three monomers. B, zoomed view of the transmembrane region from the purple box in (A). V60 is magenta and G353 is dark blue. The structure is rotated 60° on the right image. C, screening data from site-saturation of the V60 residue in saturating ATP concentration (500 μM f.c.) using the fast kinetic assay. Signal onset values (ΔF/ΔT) are normalized to values from the WT receptor. […] Each of 2 to 3 replicates is represented as a single point. […]
GCaMP assays were performed as follows. […] Cells were loaded onto a black, clear bottom microplate and imaged on a FlexStation3 plate reader. […] Fluorescence was measured with an excitation at 485 nm, and emission 525 nm. […] For strains with mScarlet, fluorescence was read with excitation 570 nm/emission 610 nm. Slopes were calculated from the last 6 points of measurement and were normalized to the positive control samples. Any replicate in which the mScarlet value was measured to be over 2 standard deviations less than the mean for that set was discarded from further analysis.

The next assay has as its system P2X2 F301 mutants. As to the kind of experiment: Site-saturation screen of ligand-binding domain with ATP, F301 mutants. In kind it is cell-based, human. To be noted: 500 μM ATP. An excerpt: (§1) The yeast P2X2 screening platform poses an opportunity to probe the structure-function of the ligand-binding domain in detail. The conserved P2X “NFR” motif at residues 300 to 302 is directly involved in bonding to the ATP triphosphate moiety ([41]), so we mutagenized residues at or near this motif (298–304), ultimately covering 133 variants (7 sites, 19 residues each). […] We compared our results to phylogenetic data based on a multiple sequence alignment (MSA) from a curated set of 419 related P2X homologs (Figs. 3B, and S5; Table S1).
(§2) Figure 3 Structure-function analysis of the ligand binding domain.A, heat map summarizing the screening data of ATP with seven site-saturation libraries surrounding the NFR-motif. B, sequence-logo plot of the mutagenized residues and percent identity scores as determined from MSA. C, homology model of P2X2 colored by sequence conservation as calculated from a multiple sequence alignment of 419 related P2X genes. Conservation is scored on a log scale where maroon is more conserved and blue is less conserved. D, ATP in the ligand-binding pocket of P2X2. […]
(§3) GCaMP assays were performed as follows. […] Cells were loaded onto a black, clear bottom microplate and imaged on a FlexStation3 plate reader. […] Fluorescence was measured with an excitation at 485 nm, and emission 525 nm. […] For strains with mScarlet, fluorescence was read with excitation 570 nm/emission 610 nm. […]

In a further assay the test system is P2X2. Details: method as in PMID 10570044. To be noted: human glia; read-out: EC50, previously published value; cited from earlier work.
A further assay has as its system P2X2 G298 substitutions. As to the kind of experiment: Site-saturation screen of ligand-binding domain with ATP, G298 substitutions. In kind it is cell-based, human. To be noted: 500 μM ATP.
Excerpt: as §1, §2, §3

The source of these data is PMC11063903, “Engineering a human P2X2 receptor with altered ligand selectivity in yeast” (The Journal of Biological Chemistry, 2024).

For `Nc1ncnc2c1ncn2[C@@H]1O[C@H](COP(=O)(O)OP(=O)(O)OP(=O)(O)O)[C@@H](O)[C@H]1O` [ATP], at P2X2 A304W, the “signal, % of WT signaling” value is on record as 125 ± 47%. Further, the “degree of Crz1p nuclear localization relative to negative control mutant P2X receptor” value in assay [1] is listed as “double”. Moreover, the “signaling, % of WT activity” value in assay [2] is reported as 50%. In addition, the signaling entry in the assay on P2X2 F301 mutants was “None of the F301 mutants showed significant signaling”. In addition, the concentration for a half-maximal effect (EC50) in the assay on P2X2 is 6 µM. Further, the “ligand gating activity compared to the negative control” value in the assay with P2X2 G298 substitutions is listed as “none of the G298 substitutions exhibiting ligand gating activity”.

As a reminder, the EC50 is the concentration giving half of the maximal effect.
